Where two headings read alike, the source gives them in different places.
What was measured:
Test in all cases: Kinase profiling in a biochemical assay panel (mobility shift assays and ELISA), %-inhibition at 1 μM; selectivity entropy
[1] = molecular target: panel of more than 300 wild-type and mutant kinases (313 kinase panel) (Homo sapiens, UniProt P17948)
[2] = molecular target: panel of more than 300 wild-type and mutant kinases (313 kinase panel) (Homo sapiens, UniProt P11309)
[3] = molecular target: panel of more than 300 wild-type and mutant kinases (313 kinase panel) (Homo sapiens, UniProt Q8TDX7)
[4] = molecular target: panel of more than 300 wild-type and mutant kinases (313 kinase panel) (Homo sapiens, UniProt Q9P1W9)
[5] = molecular target: panel of more than 300 wild-type and mutant kinases (313 kinase panel) (Homo sapiens, UniProt P53355)
[6] = molecular target: panel of more than 300 wild-type and mutant kinases (313 kinase panel) (Homo sapiens, UniProt Q86V86)
[7] = molecular target: panel of more than 300 wild-type and mutant kinases (313 kinase panel) (Homo sapiens, UniProt Q9BUB5)
[8] = molecular target: T1, panel of more than 300 wild-type and mutant kinases (313 kinase panel) (Homo sapiens, UniProt P21709)
T1 sequence (P21709 26-976): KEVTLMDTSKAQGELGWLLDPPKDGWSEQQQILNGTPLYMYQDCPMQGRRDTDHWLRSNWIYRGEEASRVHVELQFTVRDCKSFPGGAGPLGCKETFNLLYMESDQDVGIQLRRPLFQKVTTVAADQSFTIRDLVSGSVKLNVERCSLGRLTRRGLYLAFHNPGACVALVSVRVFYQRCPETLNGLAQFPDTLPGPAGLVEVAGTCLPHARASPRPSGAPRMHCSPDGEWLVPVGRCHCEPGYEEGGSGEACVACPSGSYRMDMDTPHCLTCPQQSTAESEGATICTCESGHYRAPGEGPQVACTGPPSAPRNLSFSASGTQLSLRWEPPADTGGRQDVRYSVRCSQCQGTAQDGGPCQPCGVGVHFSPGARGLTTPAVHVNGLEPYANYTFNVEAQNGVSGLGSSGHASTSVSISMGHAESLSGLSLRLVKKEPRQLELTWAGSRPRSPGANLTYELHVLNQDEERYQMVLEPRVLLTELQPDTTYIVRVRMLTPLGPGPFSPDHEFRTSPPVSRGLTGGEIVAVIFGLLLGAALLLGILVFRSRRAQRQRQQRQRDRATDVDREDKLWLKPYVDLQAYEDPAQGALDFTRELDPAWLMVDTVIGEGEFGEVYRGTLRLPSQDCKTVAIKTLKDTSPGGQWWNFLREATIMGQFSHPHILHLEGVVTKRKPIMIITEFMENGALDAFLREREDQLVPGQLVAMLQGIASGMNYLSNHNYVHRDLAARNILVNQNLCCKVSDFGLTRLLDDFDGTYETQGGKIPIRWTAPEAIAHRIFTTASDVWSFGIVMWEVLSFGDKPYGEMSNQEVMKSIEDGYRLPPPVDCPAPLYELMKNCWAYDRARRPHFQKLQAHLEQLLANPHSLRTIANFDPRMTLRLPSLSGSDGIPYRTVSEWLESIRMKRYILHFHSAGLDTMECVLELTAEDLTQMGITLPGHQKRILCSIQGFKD

[9] = test system: panel of more than 300 wild-type and mutant kinases (313 kinase panel)
[10] = molecular target: T2, panel of more than 300 wild-type and mutant kinases (313 kinase panel) (Homo sapiens, UniProt Q8TF76)
T2 sequence (Q8TF76 1-798): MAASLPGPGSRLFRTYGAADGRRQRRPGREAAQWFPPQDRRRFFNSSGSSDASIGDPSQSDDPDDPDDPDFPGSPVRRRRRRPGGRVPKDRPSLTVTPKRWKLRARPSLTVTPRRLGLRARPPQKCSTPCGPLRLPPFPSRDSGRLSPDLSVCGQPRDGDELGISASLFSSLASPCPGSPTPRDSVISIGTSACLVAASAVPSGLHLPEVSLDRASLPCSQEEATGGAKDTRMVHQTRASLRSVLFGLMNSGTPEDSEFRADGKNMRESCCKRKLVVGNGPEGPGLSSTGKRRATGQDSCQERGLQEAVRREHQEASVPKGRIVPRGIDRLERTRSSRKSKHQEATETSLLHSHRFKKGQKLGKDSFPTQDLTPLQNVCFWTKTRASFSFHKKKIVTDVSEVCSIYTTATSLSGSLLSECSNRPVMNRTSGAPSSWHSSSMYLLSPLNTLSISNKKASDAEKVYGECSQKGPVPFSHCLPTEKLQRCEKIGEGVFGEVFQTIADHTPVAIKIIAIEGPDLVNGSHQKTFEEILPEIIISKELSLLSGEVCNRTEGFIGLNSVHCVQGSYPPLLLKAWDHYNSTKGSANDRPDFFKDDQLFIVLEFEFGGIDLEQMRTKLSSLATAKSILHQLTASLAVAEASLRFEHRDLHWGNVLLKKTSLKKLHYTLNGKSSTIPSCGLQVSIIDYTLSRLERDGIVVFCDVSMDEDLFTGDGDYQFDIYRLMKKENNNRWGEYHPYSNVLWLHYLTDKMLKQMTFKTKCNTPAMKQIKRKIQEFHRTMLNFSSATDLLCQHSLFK

[11] = kinase Haspin, compound at 1 μM
[12] = kinase EGFR(d746-750), compound at 1 μM
[13] = kinase EGFR(d746-750/T790M), compound at 1 μM
[14] = kinase EML4-ALK, compound at 1 μM

Chain of panel of more than 300 wild-type and mutant kinases (313 kinase panel) (Homo sapiens, UniProt Q9BUB5) (Q9BUB5 whole entry, change not shown): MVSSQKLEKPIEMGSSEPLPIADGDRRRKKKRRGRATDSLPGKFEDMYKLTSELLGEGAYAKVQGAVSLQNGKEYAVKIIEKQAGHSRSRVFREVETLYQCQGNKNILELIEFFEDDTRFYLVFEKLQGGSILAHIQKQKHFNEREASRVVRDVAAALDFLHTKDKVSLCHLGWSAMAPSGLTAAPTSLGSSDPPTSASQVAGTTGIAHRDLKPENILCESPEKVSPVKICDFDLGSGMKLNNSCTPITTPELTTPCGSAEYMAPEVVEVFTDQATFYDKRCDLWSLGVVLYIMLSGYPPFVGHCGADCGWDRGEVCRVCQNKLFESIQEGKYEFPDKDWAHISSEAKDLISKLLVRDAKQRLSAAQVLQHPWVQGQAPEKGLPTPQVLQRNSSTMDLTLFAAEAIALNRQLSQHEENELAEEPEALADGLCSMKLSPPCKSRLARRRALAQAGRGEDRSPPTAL

SMILES | %-inhibition of FLT1 ([1]; kinase FLT1, compound at 1 μM) | %-inhibition of PIM1 ([2]; kinase PIM1, 1 μM) | %-inhibition of NEK7 ([3]; kinase NEK7, 1 μM) | %-inhibition of PIM2 ([4]; kinase PIM2, 1 μM) | %-inhibition of DAPK1 ([5]; kinase DAPK1, compound at 1 μM) | %-inhibition of PIM3 ([6]; kinase PIM3, 1 μM) | %-inhibition of MNK1 ([7]; kinase MNK1, 1 μM) | %-inhibition of EPHA1 ([8]; kinase EPHA1, compound at 1 μM) | %-inhibition of TAK1-TAB1 [9] | %-inhibition of LYNb ([9]; 1 µM) | %-inhibition of PKCβ2 ([9]; 1 µM) | %-inhibition of SRM ([9]; 1 µM) | %-inhibition of Haspin [10, 11] | %-inhibition of NPM1-ALK [9] | further results
C[C@@H](Oc1cc(-c2cnn(C3CCNCC3)c2)cnc1N)c1c(Cl)ccc(F)c1Cl [crizotinib] | 53% | -7% | -5.3% | -5.28% | -4% | -4% | 0% | 97% | 5% | 34% | -1.6% | 1.51% | 7% |  | %-inhibition of EGFR(d746-750) ([9]; 1 µM): 2%; %-inhibition of EGFR(d746-750/T790M) ([9]; 1 µM): 8%
CC(C)(C)c1nc(-c2cccc(NS(=O)(=O)c3c(F)cccc3F)c2F)c(-c2ccnc(N)n2)s1 [dabrafenib] | 62% |  | 2.28% | 0.238% | -0.54% | 9% | 20% | 44% |  |  |  |  | 9% |  | %-inhibition of EGFR(d746-750) [9, 12]: -1.84%; %-inhibition of EGFR(d746-750/T790M) [9, 13]: 6.41%; %-inhibition of EML4-ALK [9, 14]: -1.11%; %-inhibition of LYNb ([9]; kinase LYNb, compound at 1 μM): 86%; %-inhibition of NPM1-ALK ([9]; kinase NPM1-ALK, 1 μM): -3%; %-inhibition of PKCβ2 ([9]; kinase PKCβ2, 1 μM): -3%; %-inhibition of SRM ([9]; kinase SRM, 1 μM): 100%; %-inhibition of TAK1-TAB1 ([9]; kinase TAK1-TAB1, 1 μM): 14%
COc1cc2c(Nc3ccc(Br)cc3F)ncnc2cc1OCC1CCN(C)CC1 [vandetanib] |  | -9% | -6% | -6.49% | -9% | -6% | 91% | 99% | 6% | 91% | -2.13% | 39% | -3.76% | 28% | %-inhibition of EGFR(d746-750) ([9]; 1 µM): 100%; %-inhibition of EGFR(d746-750/T790M) ([9]; 1 µM): 85%; %-inhibition of EML4-ALK ([9]; 1 µM): 20%
O=S(=O)(c1cccc2cnccc12)N1CCCNCC1 [fasudil] | -0.73% | 3% | -1.52% | -1.66% | 10% | 3.45% | 15% | 0.43% |  |  |  |  | 72% |  | 
C#Cc1cccc(Nc2ncnc3cc(OCCOC)c(OCCOC)cc23)c1 [erlotinib] |  |  |  |  |  |  |  |  | 5% | 60% | 6% | 11% |  | 19% | %-inhibition of FLT1 ([1]; 1 µM): 70%; %-inhibition of PIM1 ([2]; 1 µM): 6%; %-inhibition of NEK7 ([3]; 1 µM): 0.893%; %-inhibition of PIM2 ([4]; 1 µM): 9%; %-inhibition of DAPK1 ([5]; 1 µM): 1.08%; %-inhibition of PIM3 ([6]; 1 µM): 0.333%; %-inhibition of MNK1 ([7]; 1 µM): 74%; %-inhibition of EPHA1 ([8]; 1 µM): 28%; %-inhibition of EML4-ALK ([9]; 1 µM): 26%; %-inhibition of Haspin ([10]; 1 µM): -8%
COc1cc2nccc(Oc3ccc(NC(=O)C4(C(=O)Nc5ccc(F)cc5)CC4)cc3)c2cc1OC [cabozantinib] | 99% | -10% | -6% | -12% | -10% | 0.402% | 11% | 84% |  |  |  |  | 8% |  | %-inhibition of EGFR(d746-750) [9, 12]: 51%; %-inhibition of EGFR(d746-750/T790M) [9, 13]: 43%; %-inhibition of EML4-ALK [9, 14]: 17%; %-inhibition of LYNb ([9]; kinase LYNb, compound at 1 μM): 97%; %-inhibition of NPM1-ALK ([9]; kinase NPM1-ALK, 1 μM): 10%; %-inhibition of PKCβ2 ([9]; kinase PKCβ2, 1 μM): -0.178%; %-inhibition of SRM ([9]; kinase SRM, 1 μM): 99%; %-inhibition of TAK1-TAB1 ([9]; kinase TAK1-TAB1, 1 μM): 4.37%
Cc1ccc(C(=O)Nc2ccc(CN3CCN(C)CC3)c(C(F)(F)F)c2)cc1C#Cc1cnc2cccnn12 [ponatinib] | 101% |  | -10% | 3.41% |  |  | 30% | 97% |  |  |  |  |  |  | 
CCN(CC)CCNC(=O)c1c(C)[nH]c(/C=C2\C(=O)Nc3ccc(F)cc32)c1C [sunitinib] | 98% |  |  |  |  | 21% |  |  |  |  |  |  |  |  | 
CS(=O)(=O)CCNCc1ccc(-c2ccc3ncnc(Nc4ccc(OCc5cccc(F)c5)c(Cl)c4)c3c2)o1 [lapatinib] |  | 0.601% |  | 0.254% |  | -3.44% | 11% | 6% |  | 7% | -6% | 13% | 3.3% | -3.28% | %-inhibition of NEK7 ([3]; 1 µM): -0.744%; %-inhibition of DAPK1 ([5]; 1 µM): -6%
Cc1nc(Nc2ncc(C(=O)Nc3c(C)cccc3Cl)s2)cc(N2CCN(CCO)CC2)n1 [dasatinib] |  |  |  | 5% |  | -1.78% |  | 101% |  |  |  |  | -13% |  | 
COc1cc(Nc2c(C#N)cnc3cc(OCCCN4CCN(C)CC4)c(OC)cc23)c(Cl)cc1Cl [bosutinib] |  |  |  | -12% |  |  | -4.37% | 3% | 83% | 94% | 22% | 58% |  | 66% | %-inhibition of EGFR(d746-750) ([9]; 1 µM): 100%; %-inhibition of EGFR(d746-750/T790M) ([9]; 1 µM): 92%; %-inhibition of EML4-ALK ([9]; 1 µM): 54%
